From PMC8291497 (ACS Chemical Biology, 2021)
Residue numbers refer to the chain shown, from its start. Where no end group is shown, it is not given here. TAMRA = carboxytetramethylrhodamine

How the values were obtained:
[1] = molecular target: T1, Mint2 PARM 364-570 (Y524W, Y543E) (Homo sapiens, UniProt Q99767, Y524W/Y543E); experiment: biochemical
T1 sequence (Q99767 364-570 Y524W/Y543E): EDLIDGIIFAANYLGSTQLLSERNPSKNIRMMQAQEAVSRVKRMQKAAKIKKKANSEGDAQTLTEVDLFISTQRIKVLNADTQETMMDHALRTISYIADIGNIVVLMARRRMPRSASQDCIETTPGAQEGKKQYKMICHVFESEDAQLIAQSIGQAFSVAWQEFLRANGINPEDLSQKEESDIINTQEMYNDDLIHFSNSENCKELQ

[2] = molecular target: T2, Mint2 PARM 364-570 (Y524W), pWT PARM (PTB domain and ARM linker) (Homo sapiens, UniProt Q99767, Y524W); experiment: Stopped flow binding kinetics, APP peptides to PARM (pseudo-wild type)
T2 construct: made in house; host or cells: Escherichia coli BL21(DE3)pLysS
T2 sequence (Q99767 364-570 Y524W): T1 sequence (Q99767 364-570 Y524W/Y543E) with E180Y
Protocol: (§1) Kinetic binding rate constants were obtained using an upgraded SX17 stopped flow spectrometer (Applied Photophysics), and all experiments were conducted at 25 °C in 500 mM NaCl and 25 mM HEPES (pH 7.4). The relatively high NaCl concentration was used to improve the solubility of the proteins. The change in tryptophan fluorescence was measured using a band-pass filter (excitation at 280 nm and emission at 330 ± 30 nm) when mixing varying concentrations (2–50 μM) of the dansyl peptides with 1 μM protein or 0.5 μM semisynthetic proteins. […] For PTB variants, we used the kobs value from the fast kinetic phase for the analysis. […] We report the errors in kon and koff from the curve fitting. […] For these koff determinations, we report the standard error of the mean of three replicates. Φ values were defined as ΔΔGTS/ΔΔGeq, where ΔΔGTS = RT ln(kon^WT/kon^mut.) and ΔΔGeq = RT ln(Kd^mut./Keq^WT). Calculated coupling free energies were defined as ΔΔΔGEq = RT ln(Kd^mut.:WTKd^WT:mut./Kd^WT:WTKd^mut.:mut.) or ΔΔΔGTS = RT ln(kon^WT:WTkon^mut.:mut./kon^mut.:WTkon^WT:mut.) as previously described.[27] Propagated errors are reported.

[3] = molecular target: T3, Mint2 PARM 364-570 (Y524W, Y543A) (Homo sapiens, UniProt Q99767, Y524W/Y543A); experiment: biochemical
T3 sequence (Q99767 364-570 Y524W/Y543A): T1 sequence (Q99767 364-570 Y524W/Y543E) with E180A

[4] = molecular target: T3, Mint2 PARM 364-570 (Y524W, Y543A); experiment: Stopped flow binding kinetics, APP peptides to PARM^Y543A; design: made in house; host or cells: Escherichia coli BL21(DE3)pLysS
Protocol: as §1

[5] = molecular target: Mint2 PTB 364-538 (Homo sapiens, UniProt Q99767, Y524W); experiment: biochemical
[6] = molecular target: Mint2 PARM 364-570 (Y524W) (Homo sapiens, UniProt Q99767, Y524W); experiment: biochemical
Sequence of Mint2 PARM 364-570 (Y524W) (Q99767 364-570 Y524W): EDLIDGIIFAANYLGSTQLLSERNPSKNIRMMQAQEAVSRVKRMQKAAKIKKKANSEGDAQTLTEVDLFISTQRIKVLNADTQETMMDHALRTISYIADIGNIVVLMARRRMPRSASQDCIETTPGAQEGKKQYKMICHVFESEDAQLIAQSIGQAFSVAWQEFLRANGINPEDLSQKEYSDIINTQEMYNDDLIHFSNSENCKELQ

[7] = molecular target: T1, Mint2 PARM 364-570 (Y524W, Y543E); experiment: Stopped flow binding kinetics, APP peptides to PARM^Y543E; design: made in house; host or cells: Escherichia coli BL21(DE3)pLysS
Protocol: as §1

[8] = molecular target: T4, Mint2 PTB 364-538 (without the ARM linker) (Homo sapiens, UniProt Q99767, Y524W); experiment: Stopped flow binding kinetics, APP peptides to PTB
T4 construct: made in house; host or cells: Escherichia coli BL21(DE3)pLysS
T4 sequence (Q99767 364-538 Y524W): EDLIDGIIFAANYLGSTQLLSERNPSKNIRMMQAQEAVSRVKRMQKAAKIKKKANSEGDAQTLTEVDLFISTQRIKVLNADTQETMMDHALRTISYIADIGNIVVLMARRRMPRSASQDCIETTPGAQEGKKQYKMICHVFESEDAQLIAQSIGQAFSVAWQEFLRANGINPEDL
Protocol: as §1

[9] = molecular target: Mint2 PARMWT 364-570 (Homo sapiens, UniProt Q99767); experiment: biochemical
[10] = molecular target: pseudo-wild type (pWT) PARM domain of Mint2 (residues 364-570, Y524W) (human, UniProt Q99767 364-570, Y524W); experiment: fluorescence polarisation; conditions: both partners purified
[11] = molecular target: PARM^WT (Mint2 residues 364-570) (human, UniProt Q99767 364-570); experiment: fluorescence polarisation; conditions: both partners purified
[12] = molecular target: PARM^Y543E (human Mint2 364-570, Y524W, Y543E) (human, UniProt Q99767 364-570, Y524W | Y543E); experiment: fluorescence polarisation; conditions: both partners purified
[13] = molecular target: PTB (human Mint2 PTB domain without the ARM linker, residues 364-538, Y524W) (human, UniProt Q99767 364-538, Y524W); experiment: fluorescence polarisation; conditions: both partners purified
[14] = molecular target: PARM^Y543A (human Mint2 364-570, Y524W, Y543A) (human, UniProt Q99767 364-570, Y524W | Y543A); experiment: fluorescence polarisation; conditions: both partners purified
[15] = molecular target: PARM^WT (human Mint2 PTB domain with ARM linker, residues 364-570, no Y524W) (human, UniProt Q99767 364-570); experiment: fluorescence polarisation; conditions: both partners purified
[16] = molecular target: PARM, pseudo-wild type (human Mint2 364-570, Y524W) (human, UniProt Q99767 364-570, Y524W); experiment: fluorescence polarisation; conditions: both partners purified

C[C@@H](O)[C@H](NC(=O)[C@@H]1CCCN1C(=O)[C@H](CC(N)=O)NC(=O)[C@H](CCC(=O)O)NC(=O)[C@H](Cc1ccc(O)cc1)NC(=O)CNC(=O)[C@H](CC(N)=O)NC(=O)CNC(=O)[C@H](CC(N)=O)NC(=O)[C@H](CC(N)=O)NS(=O)(=O)c1cccc2c(N(C)C)cccc12)C(=O)N[C@@H](Cc1ccc(O)cc1)C(=O)N[C@@H](CCCCN)C(=O)N[C@@H](Cc1cccc2ccccc12)C(=O)N[C@@H](Cc1ccccc1)C(=O)N[C@@H](CCC(=O)O)C(=O)O [Peptide F764Nal1]
Ki [1]: 470 ± 30 nM
Kd [2]: 1100 nM
kon ([2]; pH 7.4): 1.2e+06 M⁻¹ s⁻¹
koff ([2]; stopped flow, same buffer, 25 °C, from fit of kobs vs peptide concentration, or displacement with 50–150 µM APP^WT when not well-defined): 1.3 s⁻¹
Ki [3]: 500 nM
Kd [4]: 490 nM
koff [4]: 1.3 s⁻¹
kon ([4]; pH 7.4): 2.5e+06 M⁻¹ s⁻¹
Ki [5]: 290 nM
Ki [6]: 500 nM
Kd [7]: 430 nM
koff [7]: 1.2 s⁻¹
kon ([7]; pH 7.4): 2.9e+06 M⁻¹ s⁻¹
Kd [8]: 70 nM
koff [8]: 2.3 s⁻¹
kon ([8]; pH 7.4): 3.1e+07 ± 1e+06 M⁻¹ s⁻¹
Ki [9]: 1300 nM

{TAMRA}-NNGNGYENPTYKFFE [(TAMRA)-NNG-NGYENPTYKFFE]
binding result [10]: binds
binding result [11]: binds

NGYENPTYKFFE [APP^WT 12-mer (NGYENPTYKFFE), unlabelled]
Ki [12]: 1100 nM
Ki [13]: 740 nM
Ki [14]: 1100 nM
Ki [15]: 3200 nM
Ki [16]: 3500 nM
